The values below come from the supplement of paper PMC10307832.

Holding throughout (test): relative viability (nuclei count vs DMSO), 5 days (fraction); higher = more cells survive
Compound in assay [1]: C1CNCCC1C2=CC(=NN2)C3=CC=NC=C3 + Cc1cc(Nc2cc(N3CCN(C)CC3)nc(Sc3ccc(NC(=O)C4CC4)cc3)n2)n[nH]1 [Tozasertib] (partner 0.1 µM)
The method, boiled down:
(§1)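 Each reported value is a median over duplicate plates. It expresses relative viability: treated-well nuclei count divided by vehicle-well nuclei count. Lung cancer cell lines in 1536-well plates were dosed by pin tool a day after seeding, alone with one drug or with a fixed anchor-drug dose plus five library-drug doses (not always all listed) in √10 steps, and nuclei were counted after 5 days.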

Compound in assay [2]: C[C@@H](N)c1ccc(C(=O)Nc2ccnc3[nH]ccc23)cc1 + C[C@]1(O)C[C@@H](c2nc(-c3ccc4ccc(-c5ccccc5)nc4c3)c3c(N)nccn32)C1 [Linsitinib] (partner 1 µM)
The essentials: as §1

Compound in assay [3]: C1CNCCC1C2=CC(=NN2)C3=CC=NC=C3 + O=C(CCCCCCC(=O)Nc1ccccc1)NO [Vorinostat] (partner 1 µM)
The essentials: as §1

Compound in the assay “Tanzisertib + Phenformin”: O[C@H]1CC[C@H](Nc2ncc3nc(Nc4c(F)cc(F)cc4F)n([C@H]4CCOC4)c3n2)CC1 [Tanzisertib] + N=C(N)NC(=N)NCCc1ccccc1 [Phenformin] (partner 250 µM)
The method, boiled down:
as §1

Regarding PC-3 [JPC-3], the relative viability in assay [1] (first compound 0.08 µM) stood at 0.832; in assay [1] (first compound 0.8 µM), 0.914; in assay [1] (first compound 2.53 µM), 0.889; in assay [1] (first compound 8 µM), 0.853; in assay [2] (first compound 0.04 µM), 0.963; in assay [2] (first compound 0.1265 µM), 1.05. For the same cell line, the relative viability was 0.978 in assay [2] (first compound 0.4 µM); 1 in assay [2] (first compound 1.265 µM); 0.879 in assay [2] (first compound 4 µM); 0.94 in assay [3] (first compound 0.08 µM); 0.797 in assay [3] (first compound 0.8 µM); 0.881 in assay [3] (first compound 2.53 µM). The relative viability in assay [3] (first compound 8 µM) came to 0.834; in the assay with Tanzisertib + Phenformin (first compound 0.08 µM), 0.488; with Tanzisertib + Phenformin (first compound 0.253 µM), 0.492; with Tanzisertib + Phenformin (first compound 0.8 µM), 0.509; with Tanzisertib + Phenformin (first compound 2.53 µM) it was 0.494; with Tanzisertib + Phenformin (first compound 8 µM), 0.461.

Consider PC-14, for which the relative viability in assay [1] (first compound 0.08 µM) was 0.648; in assay [1] (first compound 0.8 µM), 0.589; in assay [1] (first compound 2.53 µM) it was 0.661; in assay [1] (first compound 8 µM) it was 0.542; in assay [2] (first compound 0.04 µM) it was 0.927; in assay [2] (first compound 0.1265 µM), 0.907. The relative viability was found to be 0.924 in assay [2] (first compound 0.4 µM); 0.819 in assay [2] (first compound 1.265 µM); 0.725 in assay [2] (first compound 4 µM); 0.536 in assay [3] (first compound 0.08 µM); 0.712 in assay [3] (first compound 0.8 µM); 0.897 in assay [3] (first compound 2.53 µM). The relative viability in assay [3] (first compound 8 µM) came to 0.7; with Tanzisertib + Phenformin (first compound 0.08 µM) it was 0.471; with Tanzisertib + Phenformin (first compound 0.253 µM), 0.746; in the assay with Tanzisertib + Phenformin (first compound 0.8 µM) it was 0.671; with Tanzisertib + Phenformin (first compound 2.53 µM), 0.599; with Tanzisertib + Phenformin (first compound 8 µM), 0.115.

In the case of RERF-LC-KJ, the relative viability in assay [1] (first compound 0.08 µM) came out at 0.525; in assay [1] (first compound 0.8 µM), 0.51; in assay [1] (first compound 2.53 µM), 0.591; in assay [1] (first compound 8 µM), 0.426; in assay [2] (first compound 0.04 µM), 0.896; in assay [2] (first compound 0.1265 µM), 0.871. Also, the relative viability in assay [2] (first compound 0.4 µM) worked out at 0.998; in assay [2] (first compound 1.265 µM) it was 0.944; in assay [2] (first compound 4 µM) it was 0.861; in assay [3] (first compound 0.08 µM), 0.553; in assay [3] (first compound 0.8 µM), 0.727; in assay [3] (first compound 2.53 µM) it was 0.862. The relative viability in assay [3] (first compound 8 µM) is 0.712; in the assay with Tanzisertib + Phenformin (first compound 0.08 µM), 0.45; in the assay with Tanzisertib + Phenformin (first compound 0.253 µM) it was 0.39; in the assay with Tanzisertib + Phenformin (first compound 0.8 µM), 0.439; in the assay with Tanzisertib + Phenformin (first compound 2.53 µM), 0.4; with Tanzisertib + Phenformin (first compound 8 µM) it was 0.384.

On to SK-LU-1, for which the relative viability in assay [1] (first compound 0.08 µM) came to 0.321; in assay [1] (first compound 0.8 µM), 0.367; in assay [1] (first compound 2.53 µM) it was 0.391; in assay [1] (first compound 8 µM), 0.334; in assay [2] (first compound 0.04 µM) it was 1.09; in assay [2] (first compound 0.1265 µM), 1.1. Also, the relative viability in assay [2] (first compound 0.4 µM) came to 1.19; in assay [2] (first compound 1.265 µM) it was 0.956; in assay [2] (first compound 4 µM), 0.637; in assay [3] (first compound 0.08 µM) it was 0.783; in assay [3] (first compound 0.8 µM) it was 0.766; in assay [3] (first compound 2.53 µM) it was 0.857. For the same cell line, the relative viability in assay [3] (first compound 8 µM) was 0.729; with Tanzisertib + Phenformin (first compound 0.08 µM), 0.694; with Tanzisertib + Phenformin (first compound 0.253 µM), 0.542; with Tanzisertib + Phenformin (first compound 0.8 µM), 0.566; with Tanzisertib + Phenformin (first compound 2.53 µM), 0.509; with Tanzisertib + Phenformin (first compound 8 µM), 0.561.

Take SK-MES-1: the relative viability came to 0.783 in assay [1] (first compound 0.08 µM); 1 in assay [1] (first compound 0.8 µM); 0.981 in assay [1] (first compound 2.53 µM); 0.834 in assay [1] (first compound 8 µM); 1.06 in assay [2] (first compound 0.04 µM); 0.996 in assay [2] (first compound 0.1265 µM). In addition, the relative viability was 0.976 in assay [2] (first compound 0.4 µM); 0.768 in assay [2] (first compound 1.265 µM); 0.815 in assay [2] (first compound 4 µM); 0.979 in assay [3] (first compound 0.08 µM); 0.978 in assay [3] (first compound 0.8 µM); 1.22 in assay [3] (first compound 2.53 µM). The relative viability in assay [3] (first compound 8 µM) came to 1.07; with Tanzisertib + Phenformin (first compound 0.08 µM) it was 0.683; in the assay with Tanzisertib + Phenformin (first compound 0.253 µM), 0.637; with Tanzisertib + Phenformin (first compound 0.8 µM), 0.663; with Tanzisertib + Phenformin (first compound 2.53 µM), 0.645; with Tanzisertib + Phenformin (first compound 8 µM), 0.632.

Consider SW 1573, for which the relative viability in assay [1] (first compound 0.8 µM) was determined as 0.202; in assay [1] (first compound 2.53 µM), 0.174; in assay [1] (first compound 8 µM) it was 0.148; in assay [2] (first compound 0.04 µM), 0.763; in assay [2] (first compound 0.1265 µM), 0.873; in assay [2] (first compound 0.4 µM) it was 0.82. For the same cell line, the relative viability came out at 0.861 in assay [2] (first compound 1.265 µM); 0.622 in assay [2] (first compound 4 µM); 0.642 in assay [3] (first compound 0.8 µM); 1.01 in assay [3] (first compound 2.53 µM); 0.967 in assay [3] (first compound 8 µM); 0.457 in the assay with Tanzisertib + Phenformin (first compound 0.08 µM). Moreover, the relative viability with Tanzisertib + Phenformin (first compound 0.253 µM) is 0.305; with Tanzisertib + Phenformin (first compound 0.8 µM), 0.347; in the assay with Tanzisertib + Phenformin (first compound 2.53 µM), 0.417; with Tanzisertib + Phenformin (first compound 8 µM), 0.356.
